Laboratory results from patent publication US20070184549A1, “Method of inducing fenestrae” (priority 2004, published 2007).

What was measured:
bEND5 cells = experiment: Fenestrae induction in bEND5 cells, quantified by stereology on SEM or wholemount TEM images; settings: for induction of fenestrae compared to the untreated control: cytochalasin B (10 nM) or Latrunculin A (2.5 nM) alone; for induction of fenestrae compared to the untreated control / maximum number of fenestrae: SEM; for maximum number of fenestrae: cytochalasin B at 2 hours, latrunculin A after 3 hours; for time of treatment at maximum number of fenestrae: single agent, SEM time-course; for fenestrae formation: 2.5 μM Latrunculin A, 3 hours, wholemount TEM
From the text: Images were printed, and sieve plates were marked (solid line). A grid (20 mm×20 mm) was overlaid over each image and the number of grid points falling within the areas delineated or on any cellular structure were counted. Fenestrae abundance was estimated based on the following calculation: Plasma membrane coverage (or fraction of the plasma membrane occupied by sieve plates)=grid points falling on sieve plates/grid points falling on any cell area. To express abundance in terms of the number of fenestrae per area of plasma membrane, the density of fenestrae within sieve plates was calculated and multiplied by the frequency of sieve plates as follows: number of fenestrae per square μm=density of fenestrae×plasma membrane coverage.
A quantitative assessment of fenestrae numbers was achieved by applying Stereology to SEM or wholemount TEM images (FIG. 3). Quantitative assessment comprised overlaying a lattice on top of an image and counting points falling on fenestrated and on non-fenestrated areas of the plasma membrane. Amounts of fenestrae were routinely expressed as fractions of plasma membrane area that was fenestrated (point counts falling on fenestrae divided by point counts falling on any plasma membrane area). To compare these numbers with measurements in previous in vivo or in vitro studies, the density of individual fenestrae within sieve plates was estimated, which when multiplied by the fraction of plasma membrane coverage equaled the number of fenestrae per μm^2 of plasma membrane.
Coverslips and dishes were coated with 1% gelatin (Sigma) solution in PBS for 30 minutes at room temperature. Endothelial cells were seeded overnight at a density equivalent to 1.5×10^6 cells per 100 mm dish. Cultures were induced with Cytochalasin B (Sigma) at 10 μM for 2 hours, with Latrunculin A (Molecular Probes) at 2.5 μM for 3 hours, or with a combination of recombinant mouse 75 ng/ml VEGF (R&D systems) for 6-72 hours and 10 μM Cytochalasin B for 2 hours. Cells were processed for biochemistry or morphology immediately after the end of the induction.

[1] = test system: actin microfilaments of bEND5 cells; experiment: Actin microfilament staining with Alexa546-conjugated phalloidin, time-course in bEND5 cells; assay type: cell-based, mouse; settings: for earliest dramatic changes in the organization of actin, time of treatment / time until which cortical actin persisted / was dismantled / time within which stress fibers were reduced: 10 μM Cytochalasin B or 2.5 μM Latrunculin A
Experimental: Stress fibers were reduced within the first 20 minutes, whereas cortical actin persisted until about 60 minutes of treatment. At 120 minutes, individual actin bundles were spread around the cytoplasm. (Bar=8 μm)
FIG. 11 show images of bEND5 cells that were treated with 2.5 μM Latrunculin A for different periods of time, and actin microfilaments were stained with Alexa546-conjugated phalloidin. Stress fibers were reduced within the first 20 minutes, while complete disruption occurs at 60-120 minutes. Individual actin foci, small filaments, and actin-rich filopodia were present after 180 minutes of treatment. (Bar=8 μm)
(§1) Microfilaments were disrupted in all cell types upon treatment. (Bar=8 μm)
In parallel to the SEM analysis, bEND5 cells subjected to cytochalasin B and latrunculin A time-courses were stained for the presence of actin microfilaments using phalloidin (FIGS. 10 and 11). Untreated cells contained an extensive network of stress fibers spanning their cytoplasm. Dramatic changes in the organization of actin were however observed as early as after 10 minutes of treatment with either agent. […] At 120 minutes, the disassembled actin was concentrated in aggregates throughout the cytoplasm, while large areas remained actin-deficient. In cells treated with latrunculin A (FIG. 11) the disruption of stress fibers was faster, and the cortical cytoskeleton was dismantled within the first 20 minutes. Overall cells had more and larger actin-depleted areas, and the remainder of actin appeared irregularly arranged in short filaments around the cytoplasm or in structures resembling filopodia.

Py4.1 cells = experiment: Fenestrae induction in Py4.1 cells, wholemount TEM; assay type: cell-based, mouse; settings: for fenestrae formation: 2.5 μM Latrunculin A, 3 hours, wholemount TEM
Experimental: (§2) FIG. 9 is a graph regarding fenestrae induction in different endothelial cell types. The potential of different endothelial cell lines to form fenestrae under the optimal parameters of induction was assessed using wholemount TEM. bEND5, Py4.1, SVEC, and HUVEC cells were treated for 3 hours with vehicle (V) or 2.5 μM Latrunculin A (Lat), and the number of fenestrae was estimated as a fraction of the plasma membrane area occupied by sieve plates. Data points represent the average of two experiments, with 36 images captured per sample in each experiment. Error bars represent standard deviation between the two experiments.
A panel of endothelial cell subtypes was assessed for their fenestrae-forming potentials. Three mouse endothelial lines (bEND5, Py4.1, SVEC) and one human primary endothelial line (HUVEC) were cultured on gelatin-coated grids, treated with latrunculin A for 3 hours, and examined by wholemount TEM (FIG. 8). bEND5 and Py4.1 cells are brain endothelomas and ear/tail endotheliomas respectively, both originating from hemangiomas of Polyoma virus—infected mice. SVECs are lymph node endothelial cells infected with SV40 virus. HUVECs were chosen because of their widespread use and primary cell nature. […] The response of bEND5 and Py4.1 cells differed both in magnitude and in relation to the respective untreated controls. bEND5 cells harbored greater numbers of fenestrae overall, but contained some background fenestrae in the un-induced state.

actin filaments = settings: barbed, fast growing end of actin filaments; cited from earlier work
[2] = test system: actin cytoskeleton of Py4.1 cells; experiment: Actin cytoskeleton staining with phalloidin in Py4.1 cells; assay type: cell-based, mouse; settings: 2.5 μM Latrunculin A, 3 hours
From the text: as §1
(§3) The actin cytoskeleton of all four cell types was stained with phalloidin to study the differential induction of endothelial cell subtypes by latrunculin A (FIG. 12). […] Observation of bEND5 and Py4.1 cells highlighted a difference in their actin cytoskeleton in the steady state (FIGS. 12A and 12C). Py4.1 cells had greater amounts of cortical actin. This could account for their decreased susceptibility to fenestrae formation compared to bEND5 cells, a discrepancy particularly apparent during induction with cytochalasin B.

HUVEC cells = experiment: Fenestrae induction in HUVEC cells, wholemount TEM; assay type: cell-based, human; settings: 2.5 μM Latrunculin A, 3 hours
Experimental: as §2
(§4) A panel of endothelial cell subtypes was assessed for their fenestrae-forming potentials. Three mouse endothelial lines (bEND5, Py4.1, SVEC) and one human primary endothelial line (HUVEC) were cultured on gelatin-coated grids, treated with latrunculin A for 3 hours, and examined by wholemount TEM (FIG. 8). bEND5 and Py4.1 cells are brain endothelomas and ear/tail endotheliomas respectively, both originating from hemangiomas of Polyoma virus—infected mice. SVECs are lymph node endothelial cells infected with SV40 virus. HUVECs were chosen because of their widespread use and primary cell nature. […]

[3] = test system: actin cytoskeleton of HUVEC cells; experiment: Actin cytoskeleton staining with phalloidin in HUVEC cells; assay type: cell-based, human; settings: 2.5 μM Latrunculin A, 3 hours
From the text: as §1, §3

[4] = test system: actin cytoskeleton of SVEC cells; experiment: Actin cytoskeleton staining with phalloidin in SVEC cells; assay type: cell-based, mouse; settings: 2.5 μM Latrunculin A, 3 hours
From the text: as §1, §3

actin monomers = settings: 1:1 complexes with actin monomers; cited from earlier work
SVEC cells = experiment: Fenestrae induction in SVEC cells, wholemount TEM; assay type: cell-based, mouse; settings: 2.5 μM Latrunculin A, 3 hours
Experimental: as §2, §4

[5] = test system: primary liver endothelial cells; settings: cited from earlier work
[6] = test system: normally non-fenestrated anatomical sites; settings: topical application or intradermal injection; cited from earlier work

Molecule: C=C1[C@@H](C)[C@H]2[C@H](Cc3ccccc3)NC(=O)[C@]23OC(=O)/C=C/[C@H](O)CCC[C@@H](C)C/C=C/[C@H]3[C@@H]1O [cytochalasin B]
- induction of fenestrae compared to the untreated control (bEND5 cells): ~100 fold
- maximum number of fenestrae (bEND5 cells): 3.5 fenestrae per μm^2
- time of treatment at maximum number of fenestrae (bEND5 cells): 2 h
- change in the number of fenestrae at 3 hours of treatment (bEND5 cells; versus the maximum at 2 hours): slight decrease
- earliest dramatic changes in the organization of actin, time of treatment [1]: 10 min
- time until which cortical actin persisted / was dismantled [1]: about 60 minutes
- time within which stress fibers were reduced [1]: ≤ 20 min
- response of Py4.1 cells to cytochalasin B (fenestrae formation) (Py4.1 cells): responsive
- Kd (actin filaments): 10 to 100 nM

Molecule: C/C1=C/C(=O)O[C@@H]2C[C@@H](CC[C@H](C)/C=C\C=C\CC1)O[C@@](O)([C@@H]1CSC(=O)N1)C2 [latrunculin A]
- fenestrae formation (bEND5 cells): susceptible to fenestrae formation
- fenestrae formation (bEND5 cells; listed as Latrunculin A): Abundant fenestrae
- induction of fenestrae compared to the untreated control (bEND5 cells): ~100 fold
- maximum number of fenestrae (bEND5 cells): up to 5.3 fenestrae per μm^2
- maximum number of fenestrae (bEND5 cells; listed as Latrunculin A): 5.3 fenestrae per μm^2
- potency in inducing fenestrae, comparison of the two agents (bEND5 cells; even when used at lower concentrations): more potent in inducing fenestrae than cytochalasin B
- time of treatment at maximum number of fenestrae (bEND5 cells): 3 h
- viability of the cells (bEND5 cells; treatments extended over 3 hours): reduced considerably
- state of the actin cytoskeleton after treatment [2]: completely disrupted
- fenestrae formation (HUVEC cells): only very few
- fenestrae formation (HUVEC cells; listed as Latrunculin A): rare fenestrae
- time of complete disruption of actin microfilaments ([1]; 2.5 μM Latrunculin A): 60 to 120 min
- state of the actin cytoskeleton after treatment ([1]; 2.5 μM Latrunculin A, 3 hours): completely disrupted
- earliest dramatic changes in the organization of actin, time of treatment [1]: 10 min
- time until which cortical actin persisted / was dismantled [1]: ≤ 20 min
- time within which stress fibers were reduced [1]: ≤ 20 min
- state of the actin cytoskeleton after treatment [3]: completely disrupted
- state of the actin cytoskeleton after treatment [4]: completely disrupted
- Kd (actin monomers): ~100 nM
- fenestrae formation (Py4.1 cells): susceptible to fenestrae formation
- fenestrae formation (Py4.1 cells; listed as Latrunculin A): Abundant fenestrae
- fenestrae formation (SVEC cells): no indication of fenestrae
- fenestrae formation (SVEC cells; listed as Latrunculin A): No fenestrae

Molecule: CO[C@H]1C[C@H](CC[C@H](C)[C@H](O)[C@H](C)[C@H]2OC(=O)/C=C/C(C)=C/C[C@H](O)C[C@@H]3C=CC[C@@H](C[C@H](OC)[C@@H](C)[C@@H](O)C[C@@H](O)[C@H](C)[C@@H]([C@@H](C)[C@@H](O)[C@@H](C)CC[C@H]4C[C@H](OC)C[C@H](C)O4)OC(=O)/C=C/C(C)=C/C[C@H](O)C[C@@H]4C=CC[C@@H](C[C@H](OC)[C@@H](C)[C@@H](O)C[C@@H](O)[C@@H]2C)O4)O3)O[C@@H](C)C1 [swinholide A]
- induction of fenestrae over untreated control [5]: less than 3 fold
- fenestrae levels ([5]; untreated control contained over 3 fenestrae per μm^2): up to 9.1 per μm^2

Molecule: VEGF
- fenestrae induction, cells treated only with VEGF (bEND5 cells; Cytochalasin B omitted from the induction cocktail): minimal induction over background
- time within which fenestrations are induced [6]: ≤ 10 min
